# In patent US9629363B2, “Pesticidal compositions and processes related thereto” (Dow AgroSciences LLC, priority 2012, dated 2017):
# Key:
# [1] = system: Beet Armyworm (BAW) (Spodoptera exigua); assay: Bioassay on beet armyworm (BAW), 128-well diet tray assay; format: in vivo; details: for BAW Rating: percent mortality of second instar larvae, 50 μg/cm^2 on artificial diet, five to seven days, 25° C.; for pest or weed control at 50 µg/cm2: Spodoptera exigua, Table 3B, beet armyworm, 128-well diet tray assay, read-out: BAW Rating
# Description: (§1) Certain molecules disclosed in this document were tested against BAW and CEW and CL using procedures described in the following examples. In the reporting of the results, the “BAW & CEW & CL Rating Table” was used (See Table Section).
# Bioassays on BAW were conducted using a 128-well diet tray assay. one to five second instar BAW larvae were placed in each well (3 mL) of the diet tray that had been previously filled with 1 mL of artificial diet to which 50 μg/cm^2 of the test compound (dissolved in 50 μL of 90:10 acetone-water mixture) had been applied (to each of eight wells) and then allowed to dry. Trays were covered with a clear self-adhesive cover, and held at 25° C., 14:10 light-dark for five to seven days. Percent mortality was recorded for the larvae in each well; activity in the eight wells was then averaged. The results are indicated in the table entitled “Table 3: Assay Results” (See Table Section).
# [2] = system: Cabbage Looper (CL) (Trichoplusia ni); assay: Bioassay on cabbage looper (CL), 128-well diet tray assay; format: in vivo; details: Table 3B, read-out: CL Rating
# Description: as §1
# Bioassays on CL were conducted using a 128-well diet tray assay. One to five second instar CL larvae were placed in each well (3 mL) of the diet tray that had been previously filled with 1 mL of artificial diet to which 50 μg/cm^2 of the test compound (dissolved in 50 μL of 90:10 acetone-water mixture) had been applied (to each of eight wells) and then allowed to dry. Trays were covered with a clear self-adhesive cover, and held at 25° C., 14:10 light-dark for five to seven days. Percent mortality was recorded for the larvae in each well; activity in the eight wells was then averaged. The results are indicated in the table entitled “Table 3A: Assay Results” (See Table Section).
Structure (SMILES),BAW Rating [1],pest or weed control at 50 µg/cm2 [2] [%],pest or weed control at 50 µg/cm2 [1] [%]
N#CCN1CCC(NC(=O)c2ccc(/C=C/C(c3cc(Cl)c(Cl)c(Cl)c3)C(F)(F)F)cc2Br)CC1 (stereo not drawn) [AC107],B (More than 0-Less than 50),–,–
"O=C(NC1CCN(C2COC2)CC1)c1ccc(/C=C/C(c2cc(Cl)c(Cl)c(Cl)c2)C(F)(F)F)cc1Br (stereo not drawn) [AC108, (E)-2-Bromo-N-(1-(oxetan-3-yl)piperidin-4-yl)-4-(4,4,4-trifluoro-3-(3,4,5-trichlorophenyl)but-1-en-1-yl)benzamide]",B (More than 0-Less than 50),–,–
O=C(NCCc1ccc(Cl)nc1)c1ccc(/C=C/C(c2cc(Cl)c(Cl)c(Cl)c2)C(F)(F)F)cc1Br (stereo not drawn) [AC113],B (More than 0-Less than 50),–,–
"CCNC(=O)NCc1ccc(/C=C/C(c2cc(Cl)cc(Cl)c2)C(F)(F)F)cc1Cl (stereo not drawn) [CC31, (E)-1-(2-Chloro-4-(3-(3,5-dichlorophenyl)-4,4,4-trifluorobut-1-en-1-yl)benzyl)-3-ethylurea]",B (More than 0-Less than 50),–,–
FC(F)(F)C(/C=C/c1ccc(-n2cncn2)cc1)c1ccccc1 (stereo not drawn) [DC3],B (More than 0-Less than 50),–,–
CN(NC(=O)c1ccc(/C=C/C(c2cc(Cl)c(Cl)c(Cl)c2)C(F)(F)F)cc1Br)C(=O)CCC(F)(F)F (stereo not drawn) [FA1],–,50 to 100,50 to 100
CN(NC(=O)c1ccc(/C=C/C(c2cc(Cl)c(Cl)c(Cl)c2)C(F)(F)F)cc1Br)C(=O)CC(F)(F)F (stereo not drawn) [FA2],–,50 to 100,50 to 100
CN(NC(=O)c1ccc(/C=C/C(c2cc(Cl)c(Cl)c(Cl)c2)C(F)(F)F)cc1C(F)(F)F)C(=O)C1CC1 (stereo not drawn) [FA3],–,50 to 100,50 to 100
CCC(=O)N(C)NC(=O)c1ccc(/C=C/C(c2cc(Cl)c(Cl)c(Cl)c2)C(F)(F)F)cc1C (stereo not drawn) [FA4],–,50 to 100,50 to 100
Cc1cc(/C=C/C(c2cc(Cl)c(Cl)c(Cl)c2)C(F)(F)F)ccc1C(=O)NN(C)C(=O)C1CC1 (stereo not drawn) [FA5],–,50 to 100,50 to 100
Cc1cc(/C=C/C(c2cc(Cl)c(Cl)c(Cl)c2)C(F)(F)F)ccc1C(=O)NN(C)C(=O)CCC(F)(F)F (stereo not drawn) [FA6],–,50 to 100,50 to 100
O=C(CC(F)(F)F)NCCNC(=O)c1ccc(/C=C/C(c2cc(Cl)c(Cl)c(Cl)c2)C(F)(F)F)cc1C(F)(F)F (stereo not drawn) [FA7],–,50 to 100,50 to 100
CC(C)(CNC(=O)c1ccc(/C=C/C(c2cc(Cl)c(Cl)c(Cl)c2)C(F)(F)F)cc1C(F)(F)F)NC(=O)CC(F)(F)F (stereo not drawn) [FA8],–,50 to 100,50 to 100
CC(C)(CNC(=O)c1ccc(/C=C/C(c2cc(Cl)c(Cl)c(Cl)c2)C(F)(F)F)cc1C(F)(F)F)NC(=O)C(F)(F)F (stereo not drawn) [FA9],–,0 to 50,–
O=C(NCCNC(=O)C(F)(F)F)c1ccc(/C=C/C(c2cc(Cl)c(Cl)c(Cl)c2)C(F)(F)F)cc1C(F)(F)F (stereo not drawn) [FA10],–,50 to 100,50 to 100
CN(NC(=O)c1ccc(/C=C/C(c2cc(Cl)c(Cl)c(Cl)c2)C(F)(F)F)cc1C(F)(F)F)C(=O)C(F)(F)C(F)(F)C(F)(F)F (stereo not drawn) [FA11],–,50 to 100,50 to 100
CCCC(=O)N(C)NC(=O)c1ccc(/C=C/C(c2cc(Cl)c(Cl)c(Cl)c2)C(F)(F)F)cc1C(F)(F)F (stereo not drawn) [FA12],–,50 to 100,50 to 100
CN(NC(=O)c1ccc(/C=C/C(c2cc(Cl)c(Cl)c(Cl)c2)C(F)(F)F)cc1C(F)(F)F)C(=O)CCC(F)(F)F (stereo not drawn) [FA13],–,50 to 100,50 to 100
O=C(CCC(F)(F)F)NNC(=O)c1ccc(/C=C/C(c2cc(Cl)c(Cl)c(Cl)c2)C(F)(F)F)cc1C(F)(F)F (stereo not drawn) [FA14],–,50 to 100,50 to 100
CC(C)(CNC(=O)C(F)(F)F)NC(=O)c1ccc(/C=C/C(c2cc(Cl)c(Cl)c(Cl)c2)C(F)(F)F)cc1C(F)(F)F (stereo not drawn) [FA15],–,50 to 100,50 to 100
CC(C)(CNC(=O)CC(F)(F)F)NC(=O)c1ccc(/C=C/C(c2cc(Cl)c(Cl)c(Cl)c2)C(F)(F)F)cc1C(F)(F)F (stereo not drawn) [FA16],–,50 to 100,50 to 100
